This data set can be described thus: Involuntary cough on administration of the active agent. It is filed as in vivo.

As for `CN(C)CCCN1c2ccccc2CCc2ccc(Cl)cc21` [clomipramine], where the note is “administered via an alternative route to pulmonary inhalation”, the cough result is recorded as “the cough is not induced”. Moreover, for the setting “administered via pulmonary inhalation”, the involuntary cough result is on record as “induces an involuntary cough”.

The values above are taken from patent US20090068276A1, “Pharmaceutical compositions” (Vectura Group plc, priority 2007, published 2009).
